Tests used:
[1] = acid dissociation index (pK1, pK2) at 25° C.; type: physicochemical; conditions: for Difference (pK2 - pK1): 25° C., method (D); for first acid dissociation index / second acid dissociation index: for the dibasic acid, source of value not given
Protocol: The organic dibasic acid used as a deodorant in the present invention is selected from organic dibasic acids and/or salts thereof having a difference between the first acid dissociation index and the second acid dissociation index of 1.7 or more at 25° C. (hereinafter, described as deodorant organic dibasic acid). The acid dissociation index can be measured, for example, by a method (A) described in The Journal of Physical Chemistry vol.
Further, previously obtained data may also be used. […] Further, the organic dibasic acid can be selected based on data bases (D) such as pKa BASE of Compudrug, and the like. The first acid dissociation index and the second acid dissociation index of the organic dibasic acid may be determined by any of the methods (A) to (D).

[2] = 25° C.; method (D), data bases such as pKa BASE of Compudrug; cited from earlier work
[3] = Deodorization effect on mercaptan (sensory evaluation, filter paper in beaker); conditions: 150 mg base agent, 50 mg 0.0002% methylmercaptan in propylene glycol; after 20 minutes; grades 0 to 3 (initial odor = 3), average of three examiners
Protocol: Filter paper having a length of 7 cm and a width of 0.5 cm was impregnated with 150 mg of a deodorant base agent, subsequently, the same filter paper was impregnated with 50 mg of a 0.0002% solution of methylmercaptan in propylene glycol. The filter paper was placed in erected condition in a 3 liter beaker and wrapping film was covered on it and left for 20 minutes, then, a odor filling the beaker was subjected to sensory evaluation. The strength of the odor of methylmercaptan at the initial was defined as 3, and odors after 20 minutes were evaluated by three examiners based on four grades from 0 to 3, and the average value thereof was calculated and the first decimal was rounded off to give a deodorization effect.

[4] = Deodorization effect on lower fatty acid (sensory evaluation); conditions: 150 mg of 1% aqueous lower fatty acid mixture 20/60/20; after 20 minutes; grades 0 to 3 (initial odor = 3), average of three examiners
[5] = Deodorization effect on ammonia odor (dessicator, Kitagawa type gas detector); conditions: 250 mg base agent, 50 mg of 1% ammonia aqueous solution, 2.5 liter dessicator, 20 minutes; relative to blank 1
Protocol: Into a schale having a diameter of 4 cm was added 250 mg of the deodorant base agents obtained in Reference Examples 1 and 2, and 50 mg of a 1% ammonia aqueous solution was dropped thereon. The above-mentioned schale was allowed to stand still in a 2.5 liter dessicator for 20 minutes, then, the ammonia concentration (S) was measured by a Kitagawa type gas detector. Further, a schale containing no deodorant base agent was used as a blank 1 and a schale containing 250 mg of water added instead of a deodorant base agent was used as a blank 2, and the ammonia concentration was measured likewise. The ammonia concentration of the blank 1 was represented by C, and the deodorization rate was calculated according to the following formula. As Comparative Example 1, the deodorization effect on an ammonia odor was measured likewise in Example 1 using 250 mg of a solution obtained by dissolving 28 g (0.116 mol) of lauryl methacrylate which is a known deodorant base agent in 115 g of diethylene glycol monoethyl ether.
(Measurement Method of Deodorization Ratio)
Deodorization rate (%)=[(C−S)/C]×100
S: ammonia gas concentration after 20 minutes (ppm)
C: ammonia gas concentration of blank 1 (ppm)

SMILES | Difference (pK2 - pK1) [1] | first acid dissociation index [1] | second acid dissociation index [1] | difference of acid dissociation index ([1]; given in running text) | First acid dissociation index (pK1) [2] | Second dissociation index (pK2) [2] | Evaluation of odor [3] | Evaluation of odor [4] | Deodorization rate [5] [%]
CC1CCCCC1(CC(=O)O)CC(=O)O (centres unmarked) [2-methylcyclohexyl-1,1-diacetic acid] | 3.36 | – | – | – | 3.53 | 6.89 | – | – | –
CC(C(=O)O)C(=O)O [2-methylmalonic acid] | 2.71 | – | – | – | 3.05 | 5.76 | – | – | –
CC(C)C(CC(=O)O)(CC(=O)O)C(C)C [3,3-diisopropylglutaric acid] | 4.05 | – | – | – | 3.65 | 7.68 | – | – | –
O=C(O)CC(CC(=O)O)(c1ccccc1)c1ccccc1 [3,3-diphenylglutaric acid] | 2.79 | – | – | – | 4.02 | 6.81 | – | – | –
CCCC(CCC)(CC(=O)O)CC(=O)O [3,3-dipropylglutaric acid] | 3.83 | – | – | – | 3.65 | 7.48 | – | – | –
CCC(CC(=O)O)(CC(=O)O)c1ccccc1 [3-ethyl-3-phenylglutaric acid] | 3.06 | – | – | – | 3.89 | 6.95 | – | – | –
CC(CC(=O)O)(CC(=O)O)c1ccccc1 [3-methyl-3-phenylglutaric acid] | 2.05 | – | – | – | 4.12 | 6.17 | – | – | –
CC1CCCC(CC(=O)O)(CC(=O)O)C1 (centres unmarked) [3-methylcyclohexyl-1,1-diacetic acid] | 2.59 | – | – | – | 3.49 | 6.08 | – | – | –
CCCC(CC(=O)O)(CC(=O)O)c1ccccc1 [3-phenyl-3-propylglutaric acid] | 3.06 | – | – | – | 3.88 | 6.94 | – | – | –
CC(C)(C)C(C)(CC(=O)O)CC(=O)O [3-t-buthyl-3-methylglutaric acid] | 3.88 | – | – | – | 3.61 | 7.49 | – | – | –
CC1CCC(CC(=O)O)(CC(=O)O)CC1 [4-methylcyclohexyl-1,1-diacetic acid] | 2.61 | – | – | – | 3.49 | 6.10 | – | – | –
C=C(C)C(=O)OCCCCCCCCCCCC [Comparative Example 1, lauryl methacrylate, reference compound] | – | – | – | – | – | – | 3 | 2 | 10
O=C(O)CC1(CC(=O)O)CCCCC1 [Cyclohexyl-1,1-diacetic acid] | 3.59 | – | – | – | 3.49 | 7.08 | – | – | –
O=C(O)[C@H]1CCCC[C@H]1C(=O)O [Deodorant base agent 1, cis-cyclohexane-1,2-dicarboxylic acid] | – | – | – | – | – | – | 2 | 1 | 79
O=C1OC(=O)C2C3C=CC(C3)C12 (centres unmarked) [Deodorant base agent 2, 5-norbornene-2,3-dicarboxylic acid anhydride] | – | 4.16 | 6.23 | – | – | – | 1 | 1 | 88
O=C(O)CC(C(=O)O)c1ccccc1 (centres unmarked) [Phenylsuccinic acid] | 1.77 | – | – | – | 3.78 | 5.55 | – | – | –
O=C(O)CC1(CC(=O)O)CCCC1 [cyclopentyl-1,1-diacetic acid] | 2.97 | – | – | – | 3.80 | 6.77 | – | – | –

Second part, led by results:

Difference (pK2 - pK1) [1] | first acid dissociation index [1] | second acid dissociation index [1] | difference of acid dissociation index ([1]; given in running text) | SMILES | First acid dissociation index (pK1) [2] | Second dissociation index (pK2) [2] | Evaluation of odor [3] | Evaluation of odor [4] | Deodorization rate [5] [%]
4.12 | – | – | – | CC(C)(C)C(C(=O)O)C(=O)O [2-t-butylmalonic acid] | 2.92 | 7.04 | – | – | –
3.75 | – | – | – | CCC(CC)(CC(=O)O)CC(=O)O [3,3-diethylglutaric acid] | 3.67 | 7.42 | – | – | –
5.56 | – | – | – | CC1(C)[C@H](C(=O)O)[C@@H]1C(=O)O [3,3-dimethyl-cis-1,2-cyclopropanedicarboxylic acid] | 2.61 | 8.17 | – | – | –
2.60 | – | – | – | CC(C)(CC(=O)O)CC(=O)O [3,3-dimethylglutaric acid] | 3.85 | 6.45 | – | – | –
3.14 | – | – | – | CC(C)C(C)(CC(=O)O)CC(=O)O [3-isopropyl-3-methylglutaric acid] | 3.78 | 6.92 | – | – | –
3.08 | – | – | – | CCC(C)(CC(=O)O)CC(=O)O [3-methyl-3-ethylglutaric acid] | 3.62 | 6.70 | – | – | –
2.95 | – | – | – | CC1CCC(CC(=O)O)(CC(=O)O)C1 (centres unmarked) [3-methylcyclopentyl-1,1-diacetic acid] | 3.79 | 6.74 | – | – | –
2.07 | – | – | – | O=C(O)[C@H]1CC[C@H]1C(=O)O [Cis-1,2-cyclobutanedicarboxylic acid] | 4.16 | 6.23 | – | – | –
3.73 | – | – | – | O=C(O)[C@H]1CCCCC[C@H]1C(=O)O [Cis-1,2-cycloheptanedicarboxylic acid] | 3.87 | 7.60 | – | – | –
3.35 | – | – | – | O=C(O)[C@H]1CCCCCC[C@H]1C(=O)O [Cis-1,2-cyclooctanedicarboxylic acid] | 3.99 | 7.34 | – | – | –
2.15 | – | – | – | O=C(O)[C@H]1CCC[C@H]1C(=O)O [Cis-1,2-cyclopentanedicarboxylic acid] | 4.42 | 6.57 | – | – | –
3.09 | – | – | – | O=C(O)[C@H]1C[C@H]1C(=O)O [Cis-1,2-cyclopropanedicarboxylic acid] | 3.56 | 6.65 | – | – | –
– | 4.00 | 5.25 | less than 1.7 | O=C(O)CCC(=O)O [Comparative Example 2, succinic acid, reference compound] | – | – | 3 | 2 | 33
3.85 | – | – | – | CC(C)(C(=O)O)C(C)(C)C(=O)O [Tetramethylsuccinic acid] | 3.56 | 7.41 | – | – | –
